# Biological target: T1, ER (Homo sapiens, UniProt P03372)
# T1 construct: host or cells: T47D and MCF7 human breast cancer cells
# T1 sequence (P03372 1-595): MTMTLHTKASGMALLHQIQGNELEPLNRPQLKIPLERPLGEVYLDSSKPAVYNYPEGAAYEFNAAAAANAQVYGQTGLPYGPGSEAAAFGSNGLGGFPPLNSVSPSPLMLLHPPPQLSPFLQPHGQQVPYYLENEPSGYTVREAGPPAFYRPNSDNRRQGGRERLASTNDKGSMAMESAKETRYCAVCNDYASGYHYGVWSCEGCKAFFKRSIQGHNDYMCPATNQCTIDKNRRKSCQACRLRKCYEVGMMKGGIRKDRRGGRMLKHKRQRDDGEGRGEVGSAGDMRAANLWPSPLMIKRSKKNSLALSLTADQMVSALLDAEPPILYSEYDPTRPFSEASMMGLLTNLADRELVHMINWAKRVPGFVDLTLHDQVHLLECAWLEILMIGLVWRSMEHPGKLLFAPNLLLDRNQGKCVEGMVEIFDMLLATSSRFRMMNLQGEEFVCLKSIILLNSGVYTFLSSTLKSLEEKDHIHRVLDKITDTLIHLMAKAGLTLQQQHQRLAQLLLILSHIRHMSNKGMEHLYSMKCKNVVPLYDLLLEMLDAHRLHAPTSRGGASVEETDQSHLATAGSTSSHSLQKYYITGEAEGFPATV
# Assay: ER degradation activity, in-cell western blot analysis in T47D cells
# Format: cell-based
# Conditions: 16 hours, Table A does not say which cell line (T47D or MCF7), read-out: Potency (DC50)
# Method in brief: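 T47D cells grown in DMEM with 10% FBS were treated with compounds for 16 hours at 0.5% DMSO final. ER was detected by in-cell western using 680/800 near-infrared secondary antibodies. Residual ER is given as percent of untreated and DMSO-treated wells set to 100%.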
row,DC50,Compound
1,< 10 nM,"C[C@@H]1Cc2c([nH]c3ccccc23)[C@@H](c2c(F)cc(N3CCC4(CCN(C(=O)CN5Cc6cc7c(cc6C5)C(=O)N(C5CCC(=O)NC5=O)C7=O)CC4)CC3)cc2F)N1CC(C)(F)F (stereo partly drawn) [E 253, 6-(2-(9-(4-((1R,3R)-2-(2,2-difluoropropyl)-3-methyl-2,3,4,9-tetrahydro-1H-pyrido[3,4-b]indol-1-yl)-3,5-difluorophenyl)-3,9-diazaspiro[5.5]undecan-3-yl)-2-oxoethyl)-2-(2,6-dioxopiperidin-3-yl)-6,7-dihydropyrrolo[3,4-f]isoindole-1,3(2H,5H)-dione]"
2,< 10 nM,"C[C@@H]1Cc2c([nH]c3ccccc23)[C@@H](c2cnc(N3CCC4(CCN(C(=O)CN5Cc6cc7c(cc6C5)C(=O)N(C5CCC(=O)NC5=O)C7=O)CC4)CC3)nc2)N1CC(F)(F)F (stereo partly drawn) [E 254, 2-(2,6-dioxopiperidin-3-yl)-6-(2-(9-(5-((1R,3R)-3-methyl-2-(2,2,2-trifluoroethyl)-2,3,4,9-tetrahydro-1H-pyrido[3,4-b]indol-1-yl)pyrimidin-2-yl)-3,9-diazaspiro[5.5]undecan-3-yl)-2-oxoethyl)-6,7-dihydropyrrolo[3,4-f]isoindole-1,3(2H,5H)-dione]"
3,< 10 nM,"C[C@@H]1Cc2c([nH]c3ccccc23)[C@@H](c2cnc(N3CCC4(CC3)CN(C(=O)CN3Cc5cc6c(cc5C3)C(=O)N(C3CCC(=O)NC3=O)C6=O)C4)nc2)N1CC(F)(F)F (stereo partly drawn) [E 255, 2-(2,6-dioxopiperidin-3-yl)-6-(2-(7-(5-((1R,3R)-3-methyl-2-(2,2,2-trifluoroethyl)-2,3,4,9-tetrahydro-1H-pyrido[3,4-b]indol-1-yl)pyrimidin-2-yl)-2,7-diazaspiro[3.5]nonan-2-yl)-2-oxoethyl)-6,7-dihydropyrrolo[3,4-f]isoindole-1,3(2H,5H)-dione]"
4,10 to 100 nM,"C[C@@H]1Cc2c([nH]c3ccccc23)[C@@H](c2cnc(N3CCC(CN4CCC(N5Cc6cc7c(cc6C5)C(=O)N(C5CCC(=O)NC5=O)C7=O)CC4)CC3)nc2)N1CC(F)(F)F (stereo partly drawn) [E 256, 2-(2,6-dioxopiperidin-3-yl)-6-(1-((1-(5-((1R,3R)-3-methyl-2-(2,2,2-trifluoroethyl)-2,3,4,9-tetrahydro-1H-pyrido[3,4-b]indol-1-yl)pyrimidin-2-yl)piperidin-4-yl)methyl)piperidin-4-yl)-6,7-dihydropyrrolo[3,4-f]isoindole-1,3(2H,5H)-dione]"
5,< 10 nM,"C[C@@H]1Cc2c([nH]c3ccccc23)[C@@H](c2cnc(N3CCC(C(=O)N4CCC(N5Cc6cc7c(cc6C5)C(=O)N(C5CCC(=O)NC5=O)C7=O)CC4)CC3)nc2)N1CC(F)(F)F (stereo partly drawn) [E 257, 2-(2,6-dioxopiperidin-3-yl)-6-(1-(1-(5-((1R,3R)-3-methyl-2-(2,2,2-trifluoroethyl)-2,3,4,9-tetrahydro-1H-pyrido[3,4-b]indol-1-yl)pyrimidin-2-yl)piperidine-4-carbonyl)piperidin-4-yl)-6,7-dihydropyrrolo[3,4-f]isoindole-1,3(2H,5H)-dione]"
6,< 10 nM,"C[C@@H]1Cc2c([nH]c3ccccc23)[C@@H](c2cnc(N3CCC4(CCN(C(=O)CN5Cc6cc7c(cc6C5)C(=O)N(C5CCC(=O)NC5=O)C7=O)CC4)CC3)nc2)N1CC(F)F (stereo partly drawn) [E 258, 6-(2-(9-(5-((1R,3R)-2-(2,2-difluoroethyl)-3-methyl-2,3,4,9-tetrahydro-1H-pyrido[3,4-b]indol-1-yl)pyrimidin-2-yl)-3,9-diazaspiro[5.5]undecan-3-yl)-2-oxoethyl)-2-(2,6-dioxopiperidin-3-yl)-6,7-dihydropyrrolo[3,4-f]isoindole-1,3(2H,5H)-dione]"
7,< 10 nM,"C[C@@H]1Cc2c([nH]c3ccccc23)[C@@H](c2cnc(N3CCC4(CC3)CN(C(=O)CN3Cc5cc6c(cc5C3)C(=O)N(C3CCC(=O)NC3=O)C6=O)C4)nc2)N1CC(F)F (stereo partly drawn) [E 259, 6-(2-(7-(5-((1R,3R)-2-(2,2-difluoroethyl)-3-methyl-2,3,4,9-tetrahydro-1H-pyrido[3,4-b]indol-1-yl)pyrimidin-2-yl)-2,7-diazaspiro[3.5]nonan-2-yl)-2-oxoethyl)-2-(2,6-dioxopiperidin-3-yl)-6,7-dihydropyrrolo[3,4-f]isoindole-1,3(2H,5H)-dione]"
8,< 10 nM,"C[C@@H]1Cc2c([nH]c3ccccc23)[C@@H](c2cnc(N3CCC(C(=O)N4CCC(N5Cc6cc7c(cc6C5)C(=O)N(C5CCC(=O)NC5=O)C7=O)CC4)CC3)nc2)N1CC(F)F (stereo partly drawn) [E 260, 6-(1-(1-(5-((1R,3R)-2-(2,2-difluoroethyl)-3-methyl-2,3,4,9-tetrahydro-1H-pyrido[3,4-b]indol-1-yl)pyrimidin-2-yl)piperidine-4-carbonyl)piperidin-4-yl)-2-(2,6-dioxopiperidin-3-yl)-6,7-dihydropyrrolo[3,4-f]isoindole-1,3(2H,5H)-dione]"
9,10 to 100 nM,"C[C@@H]1Cc2c([nH]c3ccccc23)[C@@H](c2cnc(N3CCC(CN4CCC(N5Cc6cc7c(cc6C5)C(=O)N(C5CCC(=O)NC5=O)C7=O)CC4)CC3)nc2)N1CC(F)F (stereo partly drawn) [E 261, 6-(1-((1-(5-((1R,3R)-2-(2,2-difluoroethyl)-3-methyl-2,3,4,9-tetrahydro-1H-pyrido[3,4-b]indol-1-yl)pyrimidin-2-yl)piperidin-4-yl)methyl)piperidin-4-yl)-2-(2,6-dioxopiperidin-3-yl)-6,7-dihydropyrrolo[3,4-f]isoindole-1,3(2H,5H)-dione]"
10,10 to 100 nM,"C[C@@H]1Cc2c([nH]c3ccccc23)[C@@H](c2ccc(N3CCC4(CC3)CN(C(=O)CN3Cc5cc6c(cc5C3)C(=O)N(C3CCC(=O)NC3=O)C6=O)C4)cc2)N1CC(F)F (stereo partly drawn) [E 262, 6-(2-(7-(4-((1R,3R)-2-(2,2-difluoroethyl)-3-methyl-2,3,4,9-tetrahydro-1H-pyrido[3,4-b]indol-1-yl)phenyl)-2,7-diazaspiro[3.5]nonan-2-yl)-2-oxoethyl)-2-(2,6-dioxopiperidin-3-yl)-6,7-dihydropyrrolo[3,4-f]isoindole-1,3(2H,5H)-dione]"
11,10 to 100 nM,"C[C@@H]1Cc2c([nH]c3ccccc23)[C@@H](c2ccc(N3CCC(C(=O)N4CCC(N5Cc6cc7c(cc6C5)C(=O)N(C5CCC(=O)NC5=O)C7=O)CC4)CC3)cc2)N1CC(F)F (stereo partly drawn) [E 263, 6-(1-(1-(4-((1R,3R)-2-(2,2-difluoroethyl)-3-methyl-2,3,4,9-tetrahydro-1H-pyrido[3,4-b]indol-1-yl)phenyl)piperidine-4-carbonyl)piperidin-4-yl)-2-(2,6-dioxopiperidin-3-yl)-6,7-dihydropyrrolo[3,4-f]isoindole-1,3(2H,5H)-dione]"
12,10 to 100 nM,"C[C@@H]1Cc2c([nH]c3ccccc23)[C@@H](c2ccc(N3CCC(CN4CCC(N5Cc6cc7c(cc6C5)C(=O)N(C5CCC(=O)NC5=O)C7=O)CC4)CC3)cc2)N1CC(F)F (stereo partly drawn) [E 264, 6-(1-((1-(4-((1R,3R)-2-(2,2-difluoroethyl)-3-methyl-2,3,4,9-tetrahydro-1H-pyrido[3,4-b]indol-1-yl)phenyl)piperidin-4-yl)methyl)piperidin-4-yl)-2-(2,6-dioxopiperidin-3-yl)-6,7-dihydropyrrolo[3,4-f]isoindole-1,3(2H,5H)-dione]"
13,10 to 100 nM,"C[C@@H]1Cc2c([nH]c3ccccc23)[C@@H](c2ccc(N3CCC4(CCN(C(=O)CN5Cc6cc7c(cc6C5)C(=O)N(C5CCC(=O)NC5=O)C7=O)CC4)CC3)cc2)N1CC(F)F (stereo partly drawn) [E 265, 6-(2-(9-(4-((1R,3R)-2-(2,2-difluoroethyl)-3-methyl-2,3,4,9-tetrahydro-1H-pyrido[3,4-b]indol-1-yl)phenyl)-3,9-diazaspiro[5.5]undecan-3-yl)-2-oxoethyl)-2-(2,6-dioxopiperidin-3-yl)-6,7-dihydropyrrolo[3,4-f]isoindole-1,3(2H,5H)-dione]"

# Source: patent US20240190880A1 (THE REGENTS OF THE UNIVERSITY OF MICHIGAN, priority 2021, published 2024)
